Source: patent EP0195316A1, “Quinolonecarboxylic acid derivatives” (KYORIN PHARMACEUTICAL CO., LTD., priority 1985, dated 1986)
Values after ≈ are worked out from the molar mass of the structure shown.

Columns and labels:
Experiment in all cases: MIC, in vitro antibacterial activity (standard strains)
Assay type in all cases: cell-based
[1] = test system: Bacillus subtilis PCI 219; settings: PCI219; Bacillus subtilis PCI 219, 10^6 cells/ml, Gram +
[2] = test system: Staphylococcus aureus 209 P; settings: 10^6 cells/ml, Gram +
[3] = test system: S. aureus IID 670 (Terajima); settings: Staphylococcus aureus, IID670, 10^6 cells/ml, Gram +
S. epidermidis IID 866 = settings: Staphylococcus epidermidis, IID866; S. epidermidis IID 866, 10^6 cells/ml, Gram +
[4] = test system: Streptococcus pyogenes (S-8); settings: Streptococcus pyogenes (S-8), 10^6 cells/ml, Gram +; read-out: MIC
S. pyogenes IID 692 = settings: Streptococcus pyogenes, IID692; S. pyogenes IID 692, 10^6 cells/ml, Gram +
S. pneumoniae IID 552 = settings: Streptococcus pneumoniae, IID552; S. pneumoniae IID 552, 10^6 cells/ml, Gram +; read-out: MIC
E. faecalis IID 682 = settings: Enterococcus faecalis, IID682; E. faecalis IID 682, 10^6 cells/ml, Gram +
[5] = test system: Escherichia coli NIHJ JC-2; settings: NIHJJC2; Escherichia coli NIHJ JC-2, 10^6 cells/ml, Gram -; read-out: MIC
E. coli ATCC 10536 = settings: Escherichia coli, ATCC10536; E. coli ATCC 10536, 10^6 cells/ml, Gram -; read-out: MIC
[6] = test system: Proteus vulgaris IFO 3167; settings: IFO3167; Proteus vulgaris IFO 3167, 10^6 cells/ml, Gram -; read-out: MIC
P. mirabilis IID 994 = settings: Proteus mirabilis, IID994; P. mirabilis IID 994, 10^6 cells/ml, Gram -; read-out: MIC
P. morganii IID 602 = settings: Morganella morganii, IID602; P. morganii IID 602, 10^6 cells/ml, Gram -
[7] = test system: Klebsiella pneumoniae KY(GN)6445; settings: Klebsiella pneumoniae KY(GN)6445, 10^6 cells/ml, Gram -; read-out: MIC
K. pneumoniae 1-220S = settings: Klebsiella pneumoniae, 1220S; K. pneumoniae 1-220S, 10^6 cells/ml, Gram -; read-out: MIC
[8] = test system: Enterobacter cloacae IID 977; settings: IID977; Enterobacter cloacae IID 977, 10^6 cells/ml, Gram -
[9] = test system: Citrobacter freundii IID 976; settings: IID976; Citrobacter freundii IID 976, 10^6 cells/ml, Gram -; read-out: MIC
[10] = test system: Serratia marcescens IID 618; settings: IID618; Serratia marcescens IID 618, 10^6 cells/ml, Gram -
Shigella sonnei IID 969 = settings: IID969; Shigella sonnei IID 969, 10^6 cells/ml, Gram -
Experimental: Minimal inhibitory concentrations (MICs) were determined in accordance with the method recommended by Japan Society of Chemotherapy.

[11] = test system: Salmonella enteritidis IID 604; settings: Salmonella enterica; Salmonella enteritidis IID 604, 10^6 cells/ml, Gram -; read-out: MIC
P. aeruginosa IFO 12689 = settings: Pseudomonas aeruginosa, IFO12689; P. aeruginosa IFO 12689, 10^6 cells/ml, Gram -
[12] = test system: Yersinia enterocolitica IID 981; settings: IID981; Yersinia enterocolitica IID 981, 10^6 cells/ml, Gram -
[13] = test system: Acinetobacter anitratus IID 876; settings: Acinetobacter calcoaceticus, IID876; Acinetobacter anitratus IID 876, 10^6 cells/ml, Gram -
[14] = test system: Alcaligenes faecalis 0104002; settings: Alcaligenes faecalis 0104002, 10^6 cells/ml, Gram -; read-out: MIC
[15] = test system: Bacteroides fragilis GM 7000; settings: GM7000; Bacteroides fragilis GM 7000, 10^6 cells/ml, Gram -
B. fragilis 0558 = settings: Bacteroides fragilis; B. fragilis 0558, 10^6 cells/ml, Gram -
B. fragilis 25285 = settings: Bacteroides fragilis; B. fragilis 25285, 10^6 cells/ml, Gram -
B. fragilis 8503 = settings: Bacteroides fragilis; B. fragilis 8503, 10^6 cells/ml, Gram -
[16] = test system: B. thetaiotaomicron (0661); settings: Bacteroides thetaiotaomicron; B. thetaiotaomicron (0661), 10^6 cells/ml, Gram -; read-out: MIC
F. varium KYA 8501 = settings: Fusobacterium varium, KYA8501; F. varium KYA 8501, 10^6 cells/ml, Gram -; read-out: MIC
[17] = test system: Clostridium difficile I-E; settings: Clostridioides difficile, 10^6 cells/ml, Gram +

CCNCC1CCN(c2c(F)cc3c(=O)c(C(=O)O)cn(CC)c3c2F)C1 (stereo not shown) [CI-934, 1-Ethyl-7-(3-ethylaminomethyl-1-pyrrolidinyl)-6,8-difluoro-1,4-dihydro-4-oxo-3-quinolinecarboxylic acid] showed an MIC [1] of 0.05 mg/L, an MIC [2] of 0.1 mg/L and an MIC [3] of 0.1 mg/L. For the same molecule, the MIC (S. epidermidis IID 866) was 0.1 mg/L, the MIC [4] was 0.2 mg/L (≈ 0.527 µM) and the MIC (S. pyogenes IID 692) was 0.39 mg/L. The MIC (S. pneumoniae IID 552) was 0.39 mg/L (≈ 1.03 µM), the MIC (E. faecalis IID 682) was 0.39 mg/L and the MIC [5] was 0.1 mg/L (≈ 0.264 µM). For the same molecule, the MIC (E. coli ATCC 10536) was 0.1 mg/L (≈ 0.264 µM), the MIC [6] was 0.05 mg/L (≈ 0.132 µM) and the MIC (P. mirabilis IID 994) was 0.2 mg/L (≈ 0.527 µM). It also gave an MIC (P. morganii IID 602) of 0.39 mg/L (≈ 1.03 µM), an MIC [7] of 0.2 mg/L (≈ 0.527 µM) and an MIC (K. pneumoniae 1-220S) of 0.39 mg/L (≈ 1.03 µM). It also gave an MIC [8] of 0.78 mg/L (≈ 2.06 µM), an MIC [9] of 0.2 mg/L (≈ 0.527 µM) and an MIC [10] of 0.39 mg/L (≈ 1.03 µM). The MIC (Shigella sonnei IID 969) was 0.1 mg/L (≈ 0.264 µM), the MIC [11] was 0.39 mg/L (≈ 1.03 µM) and the MIC (P. aeruginosa IFO 12689) was 6.25 mg/L (≈ 16.5 µM). For the same molecule, the MIC [12] was 0.39 mg/L (≈ 1.03 µM), the MIC [13] was 0.39 mg/L (≈ 1.03 µM) and the MIC [14] was 6.25 mg/L (≈ 16.5 µM). It also gave an MIC [15] of 6.25 mg/L (≈ 16.5 µM), an MIC (B. fragilis 0558) of 3.13 mg/L (≈ 8.25 µM) and an MIC (B. fragilis 25285) of 3.13 mg/L (≈ 8.25 µM). For the same molecule, the MIC (B. fragilis 8503) was 6.25 mg/L (≈ 16.5 µM), the MIC [16] was 25 mg/L (≈ 65.9 µM) and the MIC (F. varium KYA 8501) was 6.25 mg/L (≈ 16.5 µM). It also gave an MIC [17] of 3.13 mg/L.
